# Measurements: publication PMC6199744, “Development of Chemical Proteomics for the Folateome and Analysis of the Kinetoplastid Folateome” (ACS Infectious Diseases, 2018)
# Test system: L. major lysate proteins
# Test: Multitargeted bead mixture chemoproteomics, single concentration competition, proteome-wide
# Format: binding
# Details: for fold change: vehicle control = 1
smiles,measurement,setting,value
NCCOCCOCC(=O)Nc1nc2ncc(CNc3ccc(C(=O)NC(CCC(=O)O)C(=O)O)cc3)nc2c(=O)[nH]1 (stereo not shown) [compound 6],fold change vs vehicle control,"protein LMJF.15.0690 HY[…], CONSERVED",1.26
same,fold change,protein LMJF.15.1010 GLUTAMATE DEHYDROGENASE,1.11
same,fold change,"protein LMJF.15.1190 HY[…], CONSERVED (cyclic nucleotide-binding domain containing protein, putative)",1.07
same,fold change vs vehicle control,"protein LMJF.16.0520 HYPOTHETICAL PROTEIN, CONSERVED",0.99
same,fold change vs vehicle control,"protein LMJF.16.0540 ASPARTATE […], PUTATIVE",1.06
same,fold change relative to vehicle control,"protein LMJF.16.0760, TRANSALDOLASE, PUTATIVE",1.36
same,fold change vs vehicle control,"protein LMJF.16.0940 DYNEIN LIGHT CHAIN, PUTATIVE",0.92
same,fold change relative to vehicle control,"protein LMJF.16.1180, COATOMER DELTA SUBUNIT-LIKE PROTEIN",1.24
same,fold change relative to vehicle control,"protein LMJF.16.1320, […], PUTATIVE",1.33
same,fold change relative to vehicle control,"protein LMJF.16.1420, HY[…], CONSERVED",1.05
same,fold change relative to vehicle control,"protein LMJF.17.0081, […] 1-ALPHA",1.09
same,fold change relative to vehicle control,"protein LMJF.18.0270, GLYCOGEN SYNTHASE KINASE, PUTATIVE",1.13
same,fold change,"protein LMJF.18.0580 PEROXISOMAL ENOYL-COA HYDRATASE, PUTATIVE",0.98
same,fold change relative to vehicle control,"protein LMJF.18.0680, CITRATE SYNTHASE, PUTATIVE",1.1
same,fold change vs vehicle control,"protein LMJF.18.1010 DYNEIN LIGHT CHAIN 2B, CYTOPLASMIC, PUTATIVE",0.82
same,fold change vs vehicle control,"protein LMJF.18.1210 PROLYL-TRNA SYNTHETASE, PUTATIVE,BIFUNCTIONAL AMINOACYL-TRNA SYNTHETASE, PUTATIVE",1
same,fold change vs vehicle control,"protein LMJF.18.1370 HEAT SHOCK PROTEIN, PUTATIVE",1.1
same,fold change,"protein LMJF.19.0200 ADP,ATP CARRIER PROTEIN 1, MITOCHONDRIAL PRECURSOR, PUTATIVE",1.1
same,fold change vs vehicle control,"protein LMJF.19.1120 PROTEASOME REGULATORY NON-ATP-ASE SUBUNIT, PUTATIVE",0.96
same,fold change vs vehicle control,"protein LMJF.19.1160 HY[…], CONSERVED",1.08
same,fold change vs vehicle control,protein LMJF.19.1560 INOSINE-5'-MONOPHOSPHATE DEHYDROGENASE,0.98
same,fold change relative to vehicle control,"protein LMJF.19.1620, POTASSIUM VOLTAGE-GATED CHANNEL, PUTATIVE",1.05
same,fold change vs vehicle control,"protein LMJF.20.1280 SMALL MYRISTOYLATED PROTEIN 4, PUTATIVE",0.89
same,fold change,"protein LMJF.21.0810 METHIONYL-TRNA SYNTHETASE, PUTATIVE",1.03
same,fold change,"protein LMJF.21.1450 ARGININE N-METHYLTRANSFERASE, TYPE II, PUTATIVE",0.96
same,fold change vs vehicle control,"protein LMJF.21.1830 […] 5 SUBUNIT, PUTATIVE,20S […] ALPHA 5, (PUTATIVE)",1.01
same,fold change,"protein LMJF.22.0230 AMINO ACID PERMEASE, PUTATIVE",1.05
same,fold change vs vehicle control,"protein LMJF.22.0570 […] SUBUNIT 1, PUTATIVE",1.03
same,fold change vs vehicle control,"protein LMJF.22.0730 HYPOTHETICAL PROTEIN, CONSERVED",0.94
same,fold change,"protein LMJF.22.0770 NADH-CYTOCHROME B5 REDUCTASE, PUTATIVE",0.79
same,fold change relative to vehicle control,"protein LMJF.23.0020, HY[…], CONSERVED",1.46
same,fold change relative to vehicle control,"protein LMJF.23.0040, PEROXIDOXIN",0.97
same,fold change relative to vehicle control,"protein LMJF.23.0080, HY[…], CONSERVED",1.04
same,fold change,"protein LMJF.23.0210 ATP-BINDING CASSETTE PROTEIN SUBFAMILY C, MEMBER 1, PUTATIVE",0.92
same,fold change,"protein LMJF.23.0370 CYTOCHROME C OXIDASE SUBUNIT 10, PUTATIVE",0.83
same,fold change relative to vehicle control,"protein LMJF.23.0540, ACETYL-COA SYNTHETASE, PUTATIVE",1.23
same,fold change vs vehicle control,"protein LMJF.23.0560 KINESIN, PUTATIVE",1.1
same,fold change vs vehicle control,"protein LMJF.23.1410 HY[…], CONSERVED",1.01
same,fold change relative to vehicle control,"protein LMJF.24.0070, HYPOTHETICAL PROTEIN, CONSERVED",0.93
same,fold change,protein LMJF.24.0140 ANKYRIN/TPR REPEAT PROTEIN,1.06
same,fold change,"protein LMJF.24.0400 HY[…], CONSERVED (TPR repeat, putative)",1.02
same,fold change relative to vehicle control,"protein LMJF.24.1510, IGE-DEPENDENT HISTAMINE-RELEASING FACTOR, PUTATIVE",1.54
same,fold change relative to vehicle control,"protein LMJF.24.1630, SUCCINATE DEHYDROGENASE FLAVOPROTEIN, PUTATIVE",1.08
same,fold change relative to vehicle control,"protein LMJF.24.2060, TRANSKETOLASE",1.04
same,fold change relative to vehicle control,"protein LMJF.25.0010, BETA […] TRANSFERASE",1.13
same,fold change relative to vehicle control,"protein LMJF.25.0910, CYCLOPHILIN A",2.21
same,fold change vs vehicle control,"protein LMJF.25.1130 CYTOCHROME C OXIDASE VII, PUTATIVE",0.99
same,fold change relative to vehicle control,"protein LMJF.25.1180, ATPASE BETA SUBUNIT, PUTATIVE",1.13
same,fold change vs vehicle control,"protein LMJF.25.1610 HY[…], CONSERVED",1.01
same,fold change vs vehicle control,"protein LMJF.25.1620 HYPOTHETICAL PROTEIN, CONSERVED",1.1
same,fold change,"protein LMJF.25.2340 SERINE/THREONINE-PROTEIN KINASE, PUTATIVE,PROTEIN KINASE, PUTATIVE",0.74
same,fold change relative to vehicle control,"protein LMJF.26.0630, HYPOTHETICAL PROTEIN, CONSERVED",0.77
same,fold change vs vehicle control,protein LMJF.26.1240 HEAT SHOCK PROTEIN 70-RELATED PROTEIN,1.06
same,fold change,"protein LMJF.26.1710 CYTOCHROME C OXIDASE SUBUNIT V, PUTATIVE",0.98
same,fold change vs vehicle control,"protein LMJF.26.2480 CDP-DIACYLGLYCEROL--INOSITOL 3-[…], PUTATIVE",1.06
same,fold change vs vehicle control,"protein LMJF.26.2560 HYPOTHETICAL PROTEIN, CONSERVED",0.93
same,fold change vs vehicle control,"protein LMJF.27.0190 PROTEASOME ALPHA 7 SUBUNIT, PUTATIVE",0.98
same,fold change,"protein LMJF.27.0650 HY[…], CONSERVED",1.15
same,fold change,"protein LMJF.27.0700 HY[…], CONSERVED",1.08
same,fold change vs vehicle control,protein LMJF.27.0760 GTP-binding protein homologue,1.08
same,fold change vs vehicle control,"protein LMJF.27.1060 CYSTEINE DESULFURASE, PUTATIVE",1.09
same,fold change vs vehicle control,"protein LMJF.27.1110 MITOCHONDRIAL RNA BINDING PROTEIN 1,GBP21, MRP1",1
same,fold change,"protein LMJF.27.1250 HYPOTHETICAL PROTEIN, CONSERVED (Serine-threonine kinase receptor-associated protein, putative)",0.85
same,fold change relative to vehicle control,"protein LMJF.27.1390, 60S ACIDIC RIBOSOMAL SUBUNIT PROTEIN, PUTATIVE",1.07
same,fold change,"protein LMJF.27.1460 PROTEASOME REGULATORY NON-ATP-ASE SUBUNIT 3, PUTATIVE",1.1
same,fold change vs vehicle control,"protein LMJF.28.0110 […] 3 SUBUNIT, PUTATIVE",1.01
same,fold change vs vehicle control,"protein LMJF.28.0490 PROPIONYL-COA CARBOXYLASE BETA CHAIN, PUTATIVE",1.2
